Values of other authors as cited in article PMC5774433 (MedChemComm, 2017).

System: menin

CC1(C)CN=C(N2CCN(c3ncnc4sc(CC(F)(F)F)cc34)CC2)S1 [MI-2-2]
increase in the binding affinity compared to its non-fluorinated counterpart: over 20 fold
